In patent publication US9458110B2, “Phenylpyrazole derivatives as potent ROCK1 and ROCK2 inhibitors” (BRISTOL-MYERS SQUIBB COMPANY, priority 2013, dated 2016) one finds IC50 data, which are given here for 36 compounds.

In general, IC50 refers to the concentration at which inhibition is half-maximal. A lower IC50 goes with inhibition by little substance.

Assay [1] addresses ROCK1 (Homo sapiens (Human), UniProt Q13464). In words: ROCK assay (Caliper LABCHIP peptide phosphorylation), ROCK1.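 Note: Read-out is separation of phosphorylated from unphosphorylated peptide, with kinase activity inhibition computed at every concentration of a dose-response series.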 Type of assay: biochemical. The settings on record: 5 μM ATP, 1.5 μM peptide substrate.
In assay [2] the target is ROCK2 (Homo sapiens (Human), UniProt O75116). In words: ROCK assay (Caliper LABCHIP peptide phosphorylation), ROCK2.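 Note: reaction stopped with EDTA, then phosphorylated and unphosphorylated peptide resolved by microfluidic electrophoresis, kinase inhibition computed at each compound concentration in dose-response series, DMSO under 2%.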 Format: biochemical. The settings on record: 5 μM ATP, 1.5 μM peptide substrate.
ROCK2, sequence (O75116 whole entry, species assumed): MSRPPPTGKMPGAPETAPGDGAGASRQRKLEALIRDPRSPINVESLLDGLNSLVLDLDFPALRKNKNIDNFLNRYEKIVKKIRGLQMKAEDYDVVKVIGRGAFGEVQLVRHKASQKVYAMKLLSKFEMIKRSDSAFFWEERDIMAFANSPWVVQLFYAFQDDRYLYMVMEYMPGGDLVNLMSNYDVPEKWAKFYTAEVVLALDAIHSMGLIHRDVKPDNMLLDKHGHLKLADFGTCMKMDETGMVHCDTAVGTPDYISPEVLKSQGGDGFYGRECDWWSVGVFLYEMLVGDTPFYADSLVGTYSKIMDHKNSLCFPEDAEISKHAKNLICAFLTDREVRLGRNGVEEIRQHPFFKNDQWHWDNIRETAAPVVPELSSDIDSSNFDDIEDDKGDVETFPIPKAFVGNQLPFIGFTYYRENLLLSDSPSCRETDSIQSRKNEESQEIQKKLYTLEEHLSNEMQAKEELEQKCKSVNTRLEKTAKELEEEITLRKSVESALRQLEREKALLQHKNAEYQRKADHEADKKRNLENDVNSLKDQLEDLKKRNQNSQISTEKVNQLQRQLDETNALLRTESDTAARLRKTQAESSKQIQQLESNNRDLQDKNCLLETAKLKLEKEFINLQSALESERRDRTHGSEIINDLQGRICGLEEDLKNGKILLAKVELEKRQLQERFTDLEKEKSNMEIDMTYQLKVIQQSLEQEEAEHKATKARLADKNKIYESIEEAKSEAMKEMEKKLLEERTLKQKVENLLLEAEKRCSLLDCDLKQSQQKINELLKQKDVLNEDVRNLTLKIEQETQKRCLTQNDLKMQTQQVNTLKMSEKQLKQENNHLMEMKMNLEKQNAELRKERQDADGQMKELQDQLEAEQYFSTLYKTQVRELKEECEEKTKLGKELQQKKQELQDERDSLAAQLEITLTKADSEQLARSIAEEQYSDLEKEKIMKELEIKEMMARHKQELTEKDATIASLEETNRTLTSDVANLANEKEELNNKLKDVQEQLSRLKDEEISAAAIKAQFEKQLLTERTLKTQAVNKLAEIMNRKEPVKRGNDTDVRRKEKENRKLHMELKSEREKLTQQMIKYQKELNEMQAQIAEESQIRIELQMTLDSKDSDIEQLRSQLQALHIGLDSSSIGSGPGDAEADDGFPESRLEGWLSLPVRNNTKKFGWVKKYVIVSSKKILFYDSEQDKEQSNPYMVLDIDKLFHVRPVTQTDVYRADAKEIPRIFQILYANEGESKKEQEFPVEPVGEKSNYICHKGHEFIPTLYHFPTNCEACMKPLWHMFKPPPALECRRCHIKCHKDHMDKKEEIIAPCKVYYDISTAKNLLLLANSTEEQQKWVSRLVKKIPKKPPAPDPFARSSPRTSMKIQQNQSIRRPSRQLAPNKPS

Each structure is given as a SMILES string.

ROCK1, sequence (Q13464 whole entry, species assumed): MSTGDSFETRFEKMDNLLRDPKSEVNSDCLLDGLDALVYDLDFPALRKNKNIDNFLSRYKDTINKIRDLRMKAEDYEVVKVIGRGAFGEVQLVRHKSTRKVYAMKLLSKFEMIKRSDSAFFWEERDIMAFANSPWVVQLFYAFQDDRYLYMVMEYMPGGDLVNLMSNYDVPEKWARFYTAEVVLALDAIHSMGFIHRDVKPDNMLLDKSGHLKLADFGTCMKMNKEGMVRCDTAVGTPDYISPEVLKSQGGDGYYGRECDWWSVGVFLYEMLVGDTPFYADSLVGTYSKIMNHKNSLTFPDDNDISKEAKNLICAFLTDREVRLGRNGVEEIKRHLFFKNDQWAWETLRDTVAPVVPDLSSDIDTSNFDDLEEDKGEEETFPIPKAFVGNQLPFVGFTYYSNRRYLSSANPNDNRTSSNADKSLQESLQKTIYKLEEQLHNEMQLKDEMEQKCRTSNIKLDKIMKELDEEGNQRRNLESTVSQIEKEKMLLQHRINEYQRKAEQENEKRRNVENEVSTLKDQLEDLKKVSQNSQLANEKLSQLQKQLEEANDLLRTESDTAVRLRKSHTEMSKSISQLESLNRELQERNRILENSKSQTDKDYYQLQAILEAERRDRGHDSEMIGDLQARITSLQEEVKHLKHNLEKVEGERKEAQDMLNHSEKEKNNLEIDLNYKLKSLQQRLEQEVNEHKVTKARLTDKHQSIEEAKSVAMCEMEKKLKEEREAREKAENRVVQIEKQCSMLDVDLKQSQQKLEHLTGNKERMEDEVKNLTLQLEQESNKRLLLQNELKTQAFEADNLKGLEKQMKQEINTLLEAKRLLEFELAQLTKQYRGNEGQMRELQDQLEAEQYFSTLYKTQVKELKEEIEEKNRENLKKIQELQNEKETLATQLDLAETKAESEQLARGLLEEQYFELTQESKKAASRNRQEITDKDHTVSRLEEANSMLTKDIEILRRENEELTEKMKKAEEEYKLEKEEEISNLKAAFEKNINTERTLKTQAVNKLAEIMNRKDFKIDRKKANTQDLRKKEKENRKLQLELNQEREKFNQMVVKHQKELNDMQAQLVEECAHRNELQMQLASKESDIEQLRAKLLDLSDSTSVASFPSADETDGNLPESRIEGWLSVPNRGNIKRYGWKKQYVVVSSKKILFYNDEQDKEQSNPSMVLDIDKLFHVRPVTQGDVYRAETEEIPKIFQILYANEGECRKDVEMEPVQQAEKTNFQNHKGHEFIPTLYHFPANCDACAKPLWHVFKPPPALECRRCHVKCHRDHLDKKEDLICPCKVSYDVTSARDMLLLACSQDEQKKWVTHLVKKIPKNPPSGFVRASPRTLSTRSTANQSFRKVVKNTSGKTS

In the case of `COc1cc(C(=O)NCC(c2ccccc2)N2CCCC2)ccc1-c1cn[nH]c1` (stereo not drawn) [Example 125, 3-methoxy-N-[2-phenyl-2-(pyrrolidin-1-yl)ethyl]-4-(1H-pyrazol-4-yl)benzamide], the IC50 came out at 0.156 µM in assay [1] and 0.0849 µM in assay [2].

As for `COc1cc(C(=O)NC(CCO)c2ccccc2)ccc1-c1cn[nH]c1` (stereo not drawn) [Example 146, N-(3-hydroxy-1-phenylpropyl)-3-methoxy-4-(1H-pyrazol-4-yl)benzamide], the IC50 was found to be 0.0078 µM in assay [1] and 0.00217 µM in assay [2].

`C[C@@H](NC(=O)c1ccc(-c2cn[nH]c2)c(OC(F)F)c1)c1ccc(F)cc1` [Example 164, 3-(difluoro-methoxy)-N-[(1R)-1-(4-fluorophenyl)ethyl]-4-(1H-pyrazol-4-yl)benzamide]: the results for the IC50 in assay [1] and in assay [2] were 0.0225 µM and 0.00749 µM, respectively.

As for `Cc1cc(C(=O)N[C@H](CO)c2c(F)cccc2F)ccc1-c1cn[nH]c1` [Example 197, N-[(1S)-1-(2,6-difluorophenyl)-2-hydroxyethyl]-3-methyl-4-(1H-pyrazol-4-yl)benzamide], the IC50 in assay [1] was determined as 0.0526 µM; in assay [2], 0.0176 µM.

Take `COc1cc(C(=O)NCc2cc(F)cc(F)c2)ccc1-c1cn[nH]c1` [Example 52, N-(3,5-difluorobenzyl)-3-methoxy-4-(1H-pyrazol-4-yl)benzamide]: the figures for the IC50 in assay [1] and in assay [2] were 0.125 µM and 0.0634 µM, respectively.

In the case of `COc1cc(C(=O)NCc2ccccc2C)ccc1-c1cn[nH]c1` [Example 23, 3-methoxy-N-(2-methylbenzyl)-4-(1H-pyrazol-4-yl)benzamide], the IC50 is 0.00736 µM in assay [1] and 0.00213 µM in assay [2].

Consider `COc1cc(-c2cn[nH]c2)c(F)cc1C(=O)N[C@H](C)c1ccccc1` [Example 190, 5-fluoro-2-methoxy-N-[(1R)-1-phenylethyl]-4-(1H-pyrazol-4-yl)benzamide], for which the results for the 50% inhibitory concentration (IC50) in assay [1] and in assay [2] were 0.0371 µM and 0.0167 µM, respectively.

As for `COC(=O)CC(NC(=O)c1ccc(-c2cn[nH]c2)c(OC)c1)c1ccccc1` (stereo in doubt) [Example 92, methyl (3R)-3-{[3-methoxy-4-(1H-pyrazol-4-yl)phenyl] formamido}-3-phenyl-propanoate], the IC50 in assay [1] was found to be 0.0537 µM; in assay [2], 0.0214 µM.

For the compound `C[C@@H](NC(=O)c1ccc(-c2cn[nH]c2)c(Cn2ccnn2)c1)c1ccccc1` [Example 137, N-[(1R)-1-phenylethyl]-4-(1H-pyrazol-4-yl)-3-(1H-1,2,3-triazol-1-ylmethyl) benzamide], the IC50 in assay [1] was greater than 2 µM; in assay [2] it was 1.9 µM.

On to `COc1cc(C(=O)NCc2ccc3sccc3c2)ccc1-c1cn[nH]c1` [Example 104, N-(1-benzothiophen-5-ylmethyl)-3-methoxy-4-(1H-pyrazol-4-yl)benzamide], for which the IC50 in assay [1] worked out at 0.0249 µM; in assay [2] it was 0.00944 µM.

As to `COC(=O)c1cc(CNC(=O)c2ccc(-c3cn[nH]c3)c(OC)c2)ccc1F` [Example 134, methyl 2-fluoro-5-({[3-methoxy-4-(1H-pyrazol-4-yl)phenyl] formamido}methyl)benzoate], the results for the IC50 in assay [1] and in assay [2] were 0.00653 µM and 0.00082 µM, respectively.

Take `COc1cc(C(=O)NC(C)c2ccccc2)ccc1-c1cn[nH]c1` (stereo not drawn) [Example 20, 3-methoxy-N-(1-phenylethyl)-4-(1H-pyrazol-4-yl)benzamide]: the IC50 was 0.0105 µM in assay [1] and 0.00224 µM in assay [2].

As for `COc1cc(C(=O)NCc2ccc(F)cc2Cl)ccc1-c1cn[nH]c1` [Example 41, N-(2-chloro-4-fluorobenzyl)-3-methoxy-4-(1H-pyrazol-4-yl)benzamide], the IC50 was 0.00337 µM in assay [1] and 0.00254 µM in assay [2].

Regarding `COc1cc(C(=O)NC(C)c2ccccc2Cl)ccc1-c1cn[nH]c1` (racemic) [Example 4, (+/−)-N-(1-(2-chlorophenyl)ethyl)-3-methoxy-4-(1H-pyrazol-4-yl) benzamide], the IC50 was found to be 0.0177 µM in assay [1] and 0.00899 µM in assay [2].

As for `COc1cc(C(=O)NCCc2cccc(O)c2)ccc1-c1cn[nH]c1` [Example 124, N-[2-(3-hydroxyphenyl)ethyl]-3-methoxy-4-(1H-pyrazol-4-yl)benzamide], the figures for the IC50 in assay [1] and in assay [2] were 0.0215 µM and 0.007 µM, respectively.

Take `COc1cc(-c2cn[nH]c2)ccc1C(=O)N[C@H](CCO)c1ccccc1` [Example 209, N-[(1R)-3-hydroxy-1-phenylpropyl]-2-methoxy-4-(1H-pyrazol-4-yl)benzamide]: the results for the IC50 in assay [1] and in assay [2] were 0.00655 µM and 0.00278 µM, respectively.

In the case of `COc1cc(-c2cn[nH]c2)ccc1C(=O)N[C@H](C)c1ccc(F)cc1` [Example 206, N-[(1R)-1-(4-fluorophenyl)ethyl]-2-methoxy-4-(1H-pyrazol-4-yl) benzamide], the IC50 in assay [1] was determined as 0.007 µM; in assay [2], 0.00277 µM.

Turning to `COc1cccc(CNC(=O)c2ccc(-c3cn[nH]c3)c(F)c2)c1` [Example 59, 3-Fluoro-N-(3-methoxybenzyl)-4-(1H-pyrazol-4-yl)benzamide], the IC50 in assay [1] turned out to be 0.0333 µM; in assay [2], 0.0189 µM.

`CC(NC(=O)c1ccc(-c2cn[nH]c2)c(C(F)F)c1)c1ccccc1F` (single isomer, unassigned) [Example 300, 3-(Difluoromethyl)-N-(1-(2-fluorophenyl)ethyl)-4-(1H-pyrazol-4-yl)benzamide]: the IC50 in assay [1] was 0.108 µM; in assay [2], 0.0771 µM.

As for `CC(NC(=O)c1ccc(-c2cn[nH]c2)c(C=O)c1)c1ccccc1F` (stereo not drawn) [Example 276, N-[1-(2-fluorophenyl)ethyl]-3-formyl-4-(1H-pyrazol-4-yl)benzamide], the 50% inhibitory concentration (IC50) in assay [1] is 0.509 µM; in assay [2] it was 0.409 µM.

With `COc1cccc(CNC(=O)c2ccc(-c3cn[nH]c3)cc2CO)c1` [Example 161, 2-(hydroxymethyl)-N-[(3-methoxyphenyl)methyl]-4-(1H-pyrazol-4-yl)benzamide], the IC50 was 0.792 µM in assay [1] and 0.185 µM in assay [2].

For the compound `COc1ccc(F)c(CNC(=O)c2ccc(-c3cn[nH]c3)c(C)c2)c1` [Example 148, N-[(2-fluoro-5-methoxyphenyl)methyl]-3-methyl-4-(1H-pyrazol-4-yl)benzamide], the IC50 in assay [1] was 0.174 µM; in assay [2], 0.0512 µM.

`COc1cc(C(=O)NC(C)c2cccc(CN3CCN(C)CC3)c2)ccc1-c1cn[nH]c1` (racemic) [Example 81, (+/−)-3-methoxy-N-(1-(3-((4-methylpiperazin-1-yl)methyl)phenyl)ethyl)-4-(1H-pyrazol-4-yl)benzamide]: the results for the IC50 in assay [1] and in assay [2] were 0.156 µM and 0.0283 µM, respectively.

Turning to `COc1ccc(F)c(C(C)NC(=O)c2ccc(-c3c[nH]nc3C)cc2OC)c1` (stereo not drawn) [Example 213, N-[1-(2-fluoro-5-methoxyphenyl)ethyl]-2-methoxy-4-(3-methyl-1H-pyrazol-4-yl)benzamide], the results for the IC50 in assay [1] and in assay [2] were 0.0156 µM and 0.00516 µM, respectively.

With `COc1ccc(F)c(CNC(=O)c2ccc(-c3cn[nH]c3)c(OC)c2)c1` [Example 49, N-(2-fluoro-5-methoxybenzyl)-3-methoxy-4-(1H-pyrazol-4-yl)benzamide], the IC50 in assay [1] stood at 0.0143 µM; in assay [2], 0.00247 µM.

In the case of `COc1cc(C(=O)NCc2cccnc2)ccc1-c1cn[nH]c1` [Example 19, 3-methoxy-4-(1H-pyrazol-4-yl)-N-(pyridin-3-ylmethyl) benzamide], the results for the IC50 in assay [1] and in assay [2] were 0.104 µM and 0.0238 µM, respectively.

As to `COc1c(-c2cn[nH]c2)ccc(C(=O)N[C@H](CO)c2c(F)cccc2F)c1F` [Example 199, N-[(1S)-1-(2,6-difluorophenyl)-2-hydroxyethyl]-2-fluoro-3-methoxy-4-(1H-pyrazol-4-yl)benzamide], the IC50 in assay [1] was found to be 0.219 µM; in assay [2], 0.0216 µM.

Take `CC(O)c1cc(C(=O)N[C@H](C)c2ccccc2)ccc1-c1cn[nH]c1` (stereo partly drawn) [Example 273, 3-(1-hydroxyethyl)-N-[(1R)-1-phenylethyl]-4-(1H-pyrazol-4-yl)benzamide]: the IC50 in assay [1] stood at 0.05 µM; in assay [2], 0.00773 µM.

With `CN(C)CCOc1cc(C(=O)NCc2ccccc2Cl)ccc1-c1cn[nH]c1` [Example 63, N-(2-Chlorobenzyl)-3-(2-(dimethylamino)ethoxy)-4-(1H-pyrazol-4-yl)benzamide], the IC50 in assay [1] amounted to 1.58 µM; in assay [2], 0.844 µM.

As to `COc1cccc(C(C)NC(=O)c2ccc(-c3cn[nH]c3)c(OC)c2)n1` (stereo not drawn) [Example 135, 3-methoxy-N-[1-(6-methoxypyridin-2-yl)ethyl]-4-(1H-pyrazol-4-yl)benzamide], the figures for the IC50 in assay [1] and in assay [2] were 0.0734 µM and 0.0169 µM, respectively.

Consider `COc1cc(-c2c[nH]nc2C(F)(F)F)ccc1C(=O)NCc1c(F)cccc1Cl` [Example 189, N-[(2-chloro-6-fluorophenyl)methyl]-2-methoxy-4-[3-(trifluoromethyl)-1H-pyrazol-4-yl]benzamide], for which the IC50 is 0.0394 µM in assay [1] and 0.0425 µM in assay [2].

In the case of `COc1cc(C(=O)NCc2c(F)ccc(F)c2F)ccc1-c1cn[nH]c1` [Example 97, 3-methoxy-4-(1H-pyrazol-4-yl)-N-[(2,3,6-trifluorophenyl)methyl] benzamide], the 50% inhibitory concentration (IC50) amounted to 0.0229 µM in assay [1] and 0.00246 µM in assay [2].

In the case of `COc1cc(C(=O)NC(CO)c2ccccc2F)ccc1-c1cn[nH]c1` (stereo not drawn) [Example 162, N-[1-(2-fluorophenyl)-2-hydroxyethyl]-3-methoxy-4-(1H-pyrazol-4-yl)benzamide], the IC50 in assay [1] was found to be 0.0117 µM; in assay [2], 0.00294 µM.

Take `COc1cc(C(=O)NCc2ccccc2C(C)C)ccc1-c1cn[nH]c1` [Example 267, 3-Methoxy-N-{[2-(propan-2-yl)phenyl]methyl}-4-(1H-pyrazol-4-yl)benzamide]: the IC50 in assay [1] turned out to be 0.204 µM; in assay [2], 0.104 µM.

For the compound `COc1cccc(C2(NC(=O)c3ccc(-c4cn[nH]c4)c(OC)c3)CC2)c1` [Example 116, 3-methoxy-N-[1-(3-methoxyphenyl)cyclopropyl]-4-(1H-pyrazol-4-yl)benzamide], the IC50 turned out to be 0.0552 µM in assay [1] and 0.0179 µM in assay [2].

Regarding `C[C@@H](NC(=O)c1ccc(-c2cn[nH]c2)c(CO)c1)c1ccccc1` [Example 272, 3-(hydroxymethyl)-N-[(1R)-1-phenylethyl]-4-(1H-pyrazol-4-yl)benzamide], the IC50 worked out at 0.284 µM in assay [1] and 0.0588 µM in assay [2].
